Laboratory results published in patent publication US20250228954A1, “Designing Antisense Oligonucleotide Delivery Peptides by Interpretable Machine Learning” (Sarepta Therapeutics, Inc., priority 2020, published 2025).

Legend:
HeLa 654 cells [1] = assay: Cytotoxicity by gated cell count and propidium iodide staining in flow cytometry; type: cell-based, human; settings: at the concentrations tested in dose-response, 22 h
Text: The different modules led to several noticeable trends in the level of cellular fluorescence (FIG. 6). When module 2 was DPV6, the overall construct consistently led to high fluorescence, regardless of which peptides were placed in module 3 and 4. However, when either pVEC or TP10 was placed in module 2, minor cellular fluorescence was observed. A gated cell count was used during flow cytometry as an indirect read-out to control for the toxicity of the compounds. Highly toxic compounds led to a reduction in overall cell count and non-viable cells were gated out based upon propidium iodide staining. In this experiment, it was observed that when the module 3 peptide was the nuclear localization sequence KRVK, lower cell counts were consistently observed.
In the same format as described above, HeLa 654 cells were treated with varying concentrations of Mach 2, 3, 4, and 7 for 22 hours and analyzed by flow cytometry.
HeLa 654 cells were maintained in MEM supplemented with 10% (v/v) fetal bovine serum (FBS) and 1% (v/v) penicillin-streptomycin at 37° C. and 5% CO2. Eighteen hours prior to treatment, the cells were plated at a density of 5,000 cells per well in a 96-well plate in MEM supplemented with 10% FBS and 1% penicillin-streptomycin. The day of the experiment, the 384 well plate containing the crude reaction mixtures in DMSO was diluted to 100 μM by the addition of 16.8 μL of PBS to the 3.2 μL reaction mixture. Then, each construct was diluted to 5 μM in MEM supplemented with 10% FBS and 1% penicillin-streptomycin. Cells were incubated with each conjugate at a concentration of 5 μM for 22 hours at 37° C. and 5% CO2. Next, the treatment media was aspirated the cells were incubated with Trypsin-EDTA 0.25% for 15 min at 37° C. and 5% CO2, washed 1× with PBS, and resuspended in PBS with 2% FBS and 2 μg/mL propidium iodide. Flow cytometry analysis was carried out on a BD LSRII flow cytometer. Gates were applied to the data to ensure that cells that were highly positive for propidium iodide or had forward/side scatter readings that were sufficiently different from the main cell population were excluded. Each sample was capped at 5,000 gated events.

HeLa 654 cells [2] = assay: HeLa-654 eGFP assay (corrective splicing / exon skipping by PMO IVS2-654); type: cell-based, human; settings: 5 μM, 22 h

Question: Which “cytotoxicity as determined by cell count and PI staining” value (HeLa 654 cells [1]) does the source give for `CC[C@H](C)[C@H](NC(=O)[C@H](CC(C)C)NC(=O)[C@H](CCCNC(=N)N)NC(=O)CCCCCNC(=O)[C@H](Cc1ccc(O)cc1)NC(=O)[C@H](CCCCN)NC(=O)CCCCCNC(=O)[C@H](C)NC(=O)[C@H](CO)NC(=O)[C@H](CCCNC(=N)N)NC(=O)[C@H](C)NC(=O)[C@H](CCCCN)NC(=O)[C@H](Cc1c[nH]c2ccccc12)NC(=O)[C@H](CC(C)C)NC(=O)[C@H](Cc1c[nH]c2ccccc12)NC(=O)[C@H](CCCCN)NC(=O)[C@H](CCCCN)NC(=O)[C@H](CCCCN)NC(=O)[C@H](CCC(N)=O)NC(=O)[C@H](CCCCN)NC(=O)[C@H](CO)NC(=O)[C@H](CO)NC(=O)[C@H](CCCCN)NC(=O)[C@H](CCCCN)NC(=O)[C@H](CC(C)C)NC(=O)[C@H](CCCNC(=N)N)NC(=O)[C@H](CCCCN)NC(=O)[C@H](CCCCN)NC(=O)[C@H](CCCCN)NC(=O)[C@H](Cc1c[nH]c2ccccc12)NC(=O)[C@H](CC(C)C)NC(=O)[C@H](C)NC(=O)[C@H](C)NC(=O)[C@H](C)NC(=O)[C@@H]1CCCN1C(=O)[C@@H](NC(=O)[C@H](CCCCN)NC(=O)[C@H](Cc1c[nH]c2ccccc12)NC(=O)[C@H](C)NC(=O)[C@H](CCCNC(=N)N)NC(=O)[C@H](C)NC(=O)[C@H](C)NC(=O)CCNC(=O)[C@H](CCC(N)=O)NC(=O)[C@@H](NC(=O)[C@H](C)NC(=O)CCCCCNC(=O)[C@@H]1CCCN1C(=O)[C@H](Cc1c[nH]cn1)NC(=O)[C@H](CCCCN)NC(=O)CCCCCNC(=O)CCCCn1nnc2c1-c1ccccc1N(C(=O)CCCCC(=O)N1C[C@@H](COP(=O)(N(C)C)N3C[C@@H](COP(=O)(N(C)C)N4C[C@@H](COP(=O)(N(C)C)N5C[C@@H](COP(=O)(N(C)C)N6C[C@@H](COP(=O)(N(C)C)N7C[C@@H](COP(=O)(N(C)C)N8C[C@@H](COP(=O)(N(C)C)N9C[C@@H](COP(=O)(N(C)C)N%10C[C@@H](COP(=O)(N(C)C)N%11C[C@@H](COP(=O)(N(C)C)N%12C[C@@H](COP(=O)(N(C)C)N%13C[C@@H](COP(=O)(N(C)C)N%14C[C@@H](COP(=O)(N(C)C)N%15C[C@@H](COP(=O)(N(C)C)N%16C[C@@H](COP(=O)(N(C)C)N%17C[C@@H](COP(=O)(N(C)C)N%18C[C@@H](COP(=O)(N(C)C)N%19C[C@@H](COP(=O)(N(C)C)N%20CCN(C(=O)OCCOCCOCCO)CC%20)O[C@@H](n%20cnc%21c(=O)[nH]c(N)nc%21%20)C%19)O[C@@H](n%19ccc(N)nc%19=O)C%18)O[C@@H](n%18cc(C)c(=O)[nH]c%18=O)C%17)O[C@@H](n%17cnc%18c(N)ncnc%18%17)C%16)O[C@@H](n%16cc(C)c(=O)[nH]c%16=O)C%15)O[C@@H](n%15cc(C)c(=O)[nH]c%15=O)C%14)O[C@@H](n%14cnc%15c(N)ncnc%15%14)C%13)O[C@@H](n%13ccc(N)nc%13=O)C%12)O[C@@H](n%12ccc(N)nc%12=O)C%11)O[C@@H](n%11cc(C)c(=O)[nH]c%11=O)C%10)O[C@@H](n%10cc(C)c(=O)[nH]c%10=O)C9)O[C@@H](n9cnc%10c(N)ncnc%109)C8)O[C@@H](n8cnc9c(N)ncnc98)C7)O[C@@H](n7ccc(N)nc7=O)C6)O[C@@H](n6ccc(N)nc6=O)C5)O[C@@H](n5ccc(N)nc5=O)C4)O[C@@H](n4cnc5c(N)ncnc54)C3)O[C@@H](n3cnc4c(=O)[nH]c(N)nc43)C1)Cc1ccccc1-2)C(C)C)C(C)C)C(N)=O` (stereo partly drawn) [MACH 7] here?
Answer: The value was “no cytotoxicity”.

Question: What about the “PMO delivery / activity, result in words” value (HeLa 654 cells [2]) of the same molecule?
Answer: The value was “nearly identical”.

Question: And the “FOLD OVER PMO” value (HeLa 654 cells [2]; eGFP fluorescence of PMO-peptide conjugate relative to unconjugated PMO)?
Answer: The value was 36.
